From publication PMC8910872, “A Competition between Hydrogen, Stacking, and Halogen Bonding in N-(4-((3-Methyl-1,4-dioxo-1,4-dihydronaphthalen-2-yl)selanyl)phenyl)acetamide: Structure, Hirshfeld Surface Analysis, 3D Energy Framework Approach, and DFT Calculation” (International Journal of Molecular Sciences, 2022)
“Also recorded” adds a separate entry of the source.

Experiments:
158JP cells = assay: MTT cytotoxicity assay on 158JP oligodendrocytes; type: cell-based, Murine; conditions: mean of two parallel experiments
From the text: (§1) The cytotoxicity was estimated by the MTT assay against different oligodendrocytes, such as 158 JP and 158 N cells, and 7-ketocholesterol was the control. Different in vitro assays were used to estimate the redox activity, including the dihydroethidium (DHE), 2′,7′-dichlorodihydrofluorescein diacetate (H2-DCFDA), 2,2′-azinobis-3-ethylbenzothioazoline-6-sulphonate (ABTS), 2,2-diphenyl-2-picrylhydrazyl (DPPH), and the bleomycin-induced DNA damage assays.
(§2) Murine oligodendrocytes (158N and 158JP) were seeded at 240,000 cells per 24-well plates and were grown using the Dulbecco’s Modified Eagle Medium supplemented with penicillin antibiotics (1% v/v, streptomycin) and fetal bovine serum (5% v/v) and kept at 37 °C an atmosphere containing 5% CO2 [3]. […] Organ ic sel enides 4 and 5 were prepared in DMSO and then diluted with DMEM up to 1 mM.
The MTT assay was carried out on 158N and 158JP cells after one day of incubation with 7kc (50µM)/different concentrations (0, 1, 10, 20, 50, and 100 µM) of the o rganic selenides 4 an d 5 were. […] The microplate reader Tecan Sunrise (Tecan, Lyon, France) was used for the reading of the plates at 570 nm. […]
The cytotoxicity was measured after two days of treatment with different concentrations (0, 1, 10, 20, 50, and 100 µM) of the organic selenides using the MTT assay. […]

[1] = GPx-like activity assay (NADPH-coupled, H2O2 reduction); type: biochemical; conditions: ebselen (41 µM) positive control
Description: page 19: GPx -like activity The GPx-kit was purchased from Biodiagnostic (Egypt) and used according to the reported method. The sample was prepared by adding assay buffer and NADPH reagent (0 .1 ml; 24 μmol Glutathione, 4.8 μmol NADPH and12 units Glutathione reductase), and organic selenide 4 (0.01 ml, 41 μM). H2O2 (0.8 mM) was then added, and the absorbance was kinetically recorded every 1 min at wavelength 340 nm over three successive minutes. […]/min was calculated. Ebselen (41 μM) was used as the positive control. For colored organoselenium compounds, their absorbance was subtracted at the used wavelength. 0.008 0.007 0.006 0.005 0.004 0.003 0.002 0.001 0 Eb selen 4 5 Figure S11 . GPx-like activity assay (μM. min-1). The reduction of H2O2 by GPx-like activity was tracked by […] of glutathione disulfide (GSSG) and NADPH to glutathion e (GSH, reduced form) and NADP+, respectively. The latter was detected by a decrease in the absorbance at 340 nm. References 1. […], Jacob C. Sulfur, selenium and tellurium pseudopeptides: synthesis and biological evaluation. Bioo rg. Med. Chem. 22(14), 3610-3619 (2014). 2. […]. Synthesis and anti-tumor evaluation of novel organoselenocyanates and symmetrical diselenides dyestuffs . Der Pharma Chemica. 6, 186-193 (2014).

[2] = Bleomycin-induced DNA damage, DPPH and ABTS in vitro radical scavenging assays; conditions: DPPH, ABTS assays
From the text: as §1
(§3) Bleomycin-dependent DNA damage
The assay was performed according to the reported method with minor modifications. […] The activity of test compounds was evaluated as malondialdehyde equivalents. Thiobarbituric acid reactive substances, which arose from deoxyribose degradation of DNA were assessed. […] After cooling in ice water, the mixture was then shaken and centrifuged and the extent of DNA damage was measured by an increase in absorbance at […]
a ascorbic acid is used as a standard for antioxidant activity; values are means of 3 replicates; b not detected. […]
The hydrogen atom or electron donation ability of the corresponding compounds was measured by estimating the bleaching of the purple color of a methanolic solution of DPPH. […] After 30 min of incubation in the dark, the absorbance was read against a blank at 517 nm. […] The radical scavenging activity was calculated using the following equ ation : I% = (Ablank- […]

158N cells [3] = assay: MTT cytotoxicity assay on 158N oligodendrocytes; type: cell-based, Murine; conditions: Mus musculus, 0, 1, 10, 20, 50, 100 µM, mean of two parallel experiments, read-out: IC50 (viability of 158N cells)
From the text: as §1, §2
The MTT assay was carried out on 158N and 158JP cells after one day of incubation with 7kc (50µM)/different concentrations (0, 1, 10, 20, 50, and 100 µM) of the o rganic selenides 4 an d 5 were. In live cells, the MTT is reduced to formazan by the succinate dehydrogenase mitochondrial enzy me. The microplate reader Tecan Sunrise (Tecan, Lyon, France) was used for the reading of the plates at 570 nm. The IC50 values and the maximu m concentrations without toxicity were estimated for organic selenides 4 and 5 from the respective dose-response curves.
Table S1. Effect of the organoselenium compounds on the viability of 158N and 158JP […]
The cytotoxicity was measured after two days of treatment with different concentrations (0, 1, 10, 20, 50, and 100 µM) of the organic selenides using the MTT assay. The IC50 was estimated as the mean of two parallel experiments;

158N cells [4] = assay: H2-DCFDA assay of ROS production (flow cytometry); type: cell-based, Murine; conditions: for Effect on ROS level / H2-DCF intensity (in words): 158 N cells, 0–50 μM, vitamin E as control; for H2-DCFDA assay (% of control), ROS production: 158N cells, mean ± SD
From the text: as §1
(§4) The levels of ROS were monitored with the H2-DCFDA and DHE assays using flow cytometry. Briefly, 158 N cells were mixed with serial concentrations (0–50 μM) of compound 4 and compound 5 using Vitamin E as the control.
ROS overproduction and O2•− were detected with DCF and DHE, respectively. Cultured cells were treated with trypsin re-suspended in PBS (10^6 cells/mL) and kept in the dark for a half-hour at 37°C with H2-DCFDA or DHE at 10 μM and 2 μM and cells were analyzed by flow cytometry.
The green fluorescence of 2’,7’- dichlorofluorescein resulting from the oxidation of H2-DCFDA was analyzed by flow cytometry and collected through a 520/10-nm bandpass filter. DHE, a non-fluorescent compound, rapidly oxidized in ethidium under the action of O2•− to give 2-hydroxyethidium that intercalates with DNA giving red fluorescence of ethidium collected through a 590/10-nm bandpass filter using an excitation of 488 nm and an emission wavelength of 575 nm.
Flomax (Partec) or FlowJo (Tree Star Inc.) software was used for th e data analysis.
Table S2. Evaluation of the effects of compounds on ROS production by H2-DCFDA assay.
H2-DCFDA assay (% of control)
158N Cells were cultured in the presence of different compounds (C1=10; C2= 20; C3=50 µM); Flow cytometry technique was used to evaluate ROS levels via staining cells with H2-DCF; data are shown as mean ± SD and expressed as % control; the significance of the difference between the DMSO and compounds. Treated cells are indicated by (Mann–Whitney test; *: P < 0.05); vitamin E (50 µM) was used as a positive control.

MCF-7 = test system: MCF-7; parameters: method as in PMID 29864687, doi:10.1016/j.arabjc.2021.103051; conditions: read-out: IC50 (cytotoxic activity against MCF-7); cited from earlier work
158N cells [5] = assay: DHE assay of superoxide anion (O2•−) production (flow cytometry); type: cell-based, Murine; conditions: for DHE assay (% of positive cells), superoxide anion production: 158N cells, mean ± SD
From the text: as §1, §4
ROS overproduction and O2•− were detected with DCF and DHE, respectively. Cultured cells were treated with trypsin re-suspended in PBS (10^6 cells/mL) and kept in the dark for a half-hour at 37°C with H2-DCFDA or DHE at 10 μM and 2 μM and cells were analyzed by flow cytometry. […]
Flomax (Partec) or FlowJo (Tree Star Inc.) software was used for th e data analysis. […]
Table S3. Evaluation of the effects of compounds on superoxide anions (O2•− ) production […]
DHE assay (% of positive cells)
158N Cells were grown in the presence of different compounds (C1=10; C2= 20; C3=50 µM); Flow cytometry techniques was used to estimate the O2•− production via staining with DHE; Data are shown as mean ± SD and expressed as % control; Significance of the difference between the DMSO and compounds. […]

HepG2 = test system: HepG2; parameters: method as in PMID 29864687, doi:10.1016/j.arabjc.2021.103051; conditions: read-out: IC50 (cytotoxic activity against HepG2); cited from earlier work
calf thymus DNA = assay: Bleomycin-dependent DNA damage assay; type: biochemical; parameters: Bleomycin-dependent DNA damage assay (Abs.): scale not given here; conditions: 2 mM tested compound; for Bleomycin-dependent DNA damage assay (Abs.): absorbance at 532 nm, means of 3 replicates; for Bleomycin-dependent DNA damage, % of Vitamin C: relative to L-ascorbic acid (2 mM)
From the text: as §1, §3
The assay was performed according to the reported method with minor modifications. The reaction mixture contained 0.5 mg/ml calf thymus DNA, 0.05 mg/ml b leomy cin sulfate, 5 mM magnesium chloride, 50 mM ferric chloride, 2 mM tested compound. L-ascorbic acid (2 mM) was used as a positive control. The mixture was incubated at 37 °C for 1 hour. The activity of test compounds was evaluated as malondialdehyde equivalents. Thiobarbituric acid reactive substances, which arose from deoxyribose degradation of DNA were assessed. The reaction was terminated by the addition of 0.05 ml 0.1 M EDTA. The color was developed by adding 0.5 ml of 1% w/v thiobarbituric acid and 0.5 ml of 25% v/v HCl (25% v/v). The tube was capped with a screw cap and heated at 80 °C for 30 min. After cooling in ice water, the mixture was then shaken and centrifuged and the extent of DNA damage was measured by an increase in absorbance at […]
Table S4. The Bleomycin-dependent DNA damage assay.
Compd. No. DNA damage assay % of Vitamin C […]
a ascorbic acid is used as a standard for antioxidant activity; values are means of 3 replicates; b not detected.

Row | Molecule | IC50 (viability of 158JP cells) (158JP cells; 0, 1, 10, 20, 50, 100 µM) | GPx-like activity (in words) [1] | Pro-oxidant properties compared to vitamin C [2] | IC50 (158N cells [3]) [µM] | Effect on ROS level / H2-DCF intensity (in words) (158N cells [4]) | H2-DCFDA assay (% of control), ROS production (158N cells [4]; C1 (10 µM)) | H2-DCFDA assay (% of control), ROS production (158N cells [4]; C2 (20 µM)) | H2-DCFDA assay (% of control), ROS production (158N cells [4]; C3 (50 µM), vitamin E 50 µM) | IC50 (MCF-7) [µM] | Effect on O2− production in DHE assay (in words) (158N cells [5]; 158 N cells, 0–50 μM) | DHE assay (% of positive cells), superoxide anion production (158N cells [5]; C1 (10 µM)) | DHE assay (% of positive cells), superoxide anion production (158N cells [5]; C2 (20 µM)) | DHE assay (% of positive cells), superoxide anion production (158N cells [5]; C3 (50 µM), vitamin E 50 µM) | IC50 (HepG2) [µM] | Bleomycin-dependent DNA damage assay (Abs.) (calf thymus DNA) | Bleomycin-dependent DNA damage, % of Vitamin C (calf thymus DNA) [%] | IC50 (158JP cells; Mus musculus, 0, 1, 10, 20, 50, 100 µM, read-out: IC50 (viability of 158JP cells)) [µM]
1 | CC1=C([Se]c2ccc(N)cc2)C(=O)c2ccccc2C1=O [Compound 4] | no growth inhibition was observed | moderate GPx-like activity | up to 60% | 27 | pronounced pro-oxidant activity | 700 ± 143 % of control | 854 ± 135 % of control | 935 ± 307 % of control | 14.7 | promote the production of O2^− | 264 ±25 % of positive cells | 406±29 % of positive cells | 417±31 % of positive cells | 0.9 | 483 | 48.8 | –
2 | VITAMINE E [reference compound] | – | – | – | – | – | – | – | 94 ± 5 % of control | – | – | – | – | 74± 1 % of positive cells | – | – | – | –
3 | CC(=O)Nc1ccc([Se]C2=C(C)C(=O)c3ccccc3C2=O)cc1 [Compound 5, N-(4-((3-Methyl-1,4-dioxo-1,4-dihydronaphthalen-2-yl)selanyl)phenyl)acetamide] | – | moderate GPx-like activity | up to 60% | 11 | decrease the H2-DCF intensity; also recorded: decreased the ROS level | 7 ± 2 % of control | 5 ± 1 % of control | 6 ± 1 % of control | – | – | 109±12 % of positive cells | 121 ±1 % of positive cells | 120 ±4 % of positive cells | – | 581 | 58.8 | –
4 | CC(C)CCC[C@@H](C)[C@H]1CC[C@H]2[C@@H]3C(=O)C=C4C[C@@H](O)CC[C@]4(C)[C@H]3CC[C@]12C [Compound 7kc, 7-ketocholesterol, reference compound] | – | – | – | 37 | – | – | – | – | – | – | – | – | – | – | – | – | 74
5 | O=C1O[C@H]([C@@H](O)CO)C(O)=C1O [Vit.C, L-ascorbic acid, reference compound] | – | – | – | – | – | – | – | – | – | – | – | – | – | – | 989 | 100 | –
